Source: patent US6855312B1, “Hair care composition” (The Boots Company PLC, priority 1999, dated 2005)

Test system: Linoleic acid (model skin and hair lipid)
Assay: UVA/B-induced lipid peroxidation of linoleic acid, lipid hydroperoxides by colorimetric test (In Vitro Tests)
Format: biochemical
Details: first series; compared to irradiated vehicle alone; broad spectrum UVA/B
Description: Linoleic acid (model skin and hair lipid) was incubated in the presence of various antioxidants and antoxidant combinations and was exposed to broad spectrum UVA/B to induce oxidation of the lipid. Following extraction of the lipid into methanol, the amount of lipid hydroperoxides (free radical generated damage) formed were measured with a specific colorimetric biochemical test. The degree of inhibition afforded by the antioxidants was thus measured and compared to irradiated vehicle controls.
The percentage inhibition of free radical mediated lipid peroxidation when compared to the vehicle alone are given below.
In a second series of experiments using antoxidants collected in a later season gave the following results.

SMILES: O=C1O[C@H]([C@@H](O)CO)C([O-])=C1OP(=O)([O-])[O-].[Na+].[Na+].[Na+] [Sodium ascorbyl phosphate]
- % inhibition of free radical mediated lipid peroxidation (observed): 21%
